Entries after “also recorded” stand apart in the source; their conditions may differ.
How the values were obtained:
[1] = system: rat lens; details: rat lens incubated in cyanate; cited from earlier work
[2] = system: lens protein; details: cited from earlier work
[3] = system: carbamylation of LDL; test: In vitro inhibition of LDL carbamylation by potassium cyanate; format: biochemical, human; details: molar ratios of 1:1 to 16:1 (L-lysine:KOCN)
Procedure: CLDL (cLDL) was produced by chemical modification of nLDL. Native LDL was incubated under sterile conditions with potassium cyanate (Aldrich; Milwaukee, Wis.) (20 mg KOCN/mg nLDL) at 35° C. for 4 hours. Salt was removed by excessive dialysis against 0.15 M NaCl, 0.01% EDTA, pH 7.0 at 4° C. for 48 hours under sterile conditions. To obtain cLDL carbamylated to different degrees, various incubation periods, from 5 to 300 min, were used.
Assessment of carbamylation was made (a) on the basis of relative electrophoretic mobility in agarose gel, and (b) by the homocitrulline assay as described by Trepanier et al.. Briefly, 25 μg of LDL protein in PBS, pH 7.4 (50 μl volume) was incubated with 2 μg proteinase K and 1% SDS (v:v) at 37° C. for 2 hours. Then 250 μl of urea-nitrogen reagent (0.83 M sulfuric acid, 1.13 M orthophosphoric acid, 0.55 mM thiosemicarbazide, 2.6 mM cadmium sulfate), 50 μl 3% diacetyl monoxime in water was added and the mixture was incubated at 97° C. for 30 min. Samples were transferred into a 96-well plate and absorption of chromogen(s) was recorded at 530 nm. Homocitrulline (carbamyl lysine) standard curves (0-30 nmol) were generated using serial dilutions of a stock solution (200 μM) in PBS, pH 7.4. Results are expressed as nmol homocitrulline/mg LDL protein).

[4] = system: HCAECs; test: Flow cytometry of LDL-treated cells double-labeled with BrdU and 7-AAD; format: cell-based, human
Procedure: Flow cytometry of LDL-treated cells double-labeled with BrdU and 7-AAD (marker of total DNA) was performed to detect whether BrdU incorporation is linked to DNA synthesis or DNA repair, and whether mitosis is suppressed, and thus accumulation of polyploid cells is associated with the increase of BrdU incorporation.

CC(=O)Oc1ccccc1C(=O)O [aspirin]
cyanate-induced increase in phase separation temperature [1]: aspirin-preventable increase in phase separation temperature

CC(C)Cc1ccc(C(C)C(=O)O)cc1 (stereo not shown) [ibuprofen]
binding of cyanate to lens protein [2]: dose-dependent decrease

N=C(N)NCCC[C@H](N)C(=O)O [L-arginine]
inhibition of carbamylation of LDL in vitro [3]: can inhibit carbamylation of LDL in vitro

N#C[O-].[K+] [Potassium cyanate, potassium cyanate]
induction of proliferation or DNA synthesis [4]: did not induce proliferation or DNA synthesis

O=C(O)COc1nn(Cc2ccccc2)c2ccccc12 [Bendazac]
carbamylation of lens protein ([2]; present with cyanate): inhibits the carbamylation of lens protein

NCCCC[C@H](N)C(=O)O [L-lysine]
inhibition of carbamylation of LDL in vitro [3]: can inhibit carbamylation of LDL in vitro; also recorded: inhibition of LDL carbamylation

NCC(=O)O [L-glycine]
inhibition of carbamylation of LDL in vitro [3]: can inhibit carbamylation of LDL in vitro
